# According to patent publication US12122854B2, “Graft copolymer and preparation method and use thereof” (ANHUI AGRICULTURAL UNIVERSITY, priority 2022, dated 2024):
# Assays:
# [1] = ABTS free radical scavenging rate; format: biochemical; conditions: 5 min
# Procedure: The ABTS free radical scavenging rate of EPSF-starch was measured as follows: 100 mg of ABTS and 34.4 mg of potassium persulfate were dissolved in 25 mL of distilled water. They were shaken well, and stored at ambient temperature in dark for 12-16 hours.
# EPSFs in Example 1 and EGCG in Comparative Example 1 were dispersed uniformly in methanol, obtaining dispersions with mass concentrations of 2 μg/mL, 4 μg/mL, 6 μg/mL, 8 μg/mL, 10 μg/mL and 12 μg/mL. The corn starch and EPSF-starch in Example 1, as well as the EGCG-starch in Comparative Example 1, were uniformly dispersed in methanol obtaining dispersions with mass concentrations of 0.156 mg/mL, 0.313 mg/mL, 0.625 mg/mL, 1.25 mg/mL, and 2.50 mg/mL. 1.0 mL of the above sample solutions and 3.0 mL of the ABTS free radical working solution were added to the test tube in sequence, and they were shaken well, and reacted at ambient temperature in dark for 5 minutes. The absorbance A1 thereof was measured at 734 nm. The sample solutions were replaced with methanol and the absorbance A0 thereof was measured according to the above method. EGCG, starch, and EGCG-starch functioned as control groups, and the ABTS free radical scavenging rates thereof were determined according to the above method. Experiment of each group was repeated three times, and the ABTS free radical scavenging rate of each sample was calculated according to Equation 2.
# [formula] • where A0 represents the absorbance of a mixture of the sample dispersion and methanol; and A1 represents the absorbance of the sample dispersion and ABTS radical solution.
# [2] = DPPH free radical scavenging rate; format: biochemical; conditions: 30 min
# Procedure: The scavenging rate of EPSF-starch on DPPH free radicals was measured as follows: The N-ethyl-2-pyrrolidinone-substituted flavan-3-ol (EPSF) in Example 1 and EGCG in Comparative Example 1 were uniformly dispersed in methanol separately, obtaining dispersions with mass concentrations of 2 μg/mL, 4 μg/mL, 6 μg/mL, 8 μg/mL, 10 μg/mL and 12 μg/mL. The corn starch and EPSF-starch in Example 1, as well as the EGCG-starch in Comparative Example 1, were uniformly dispersed in methanol to obtain dispersions with mass concentrations of 0.156 mg/mL, 0.313 mg/mL, 0.625 mg/mL, 1.25 mg/mL, and 2.50 mg/mL. 2 mL of the above sample dispersions were pipetted in sequence into test tubes, and 2.0 mL of a DPPH solution (0.2 mmol/L, which was prepared with methanol) was added thereto, respectively. The resulting mixture was shaken well, and reacted at ambient temperature in dark for 30 minutes. The absorbance A1 thereof was then measured at 517 nm. Meanwhile, DPPH solution was replaced with an equal amount of methanol solution, and the absorbance A2 thereof was measured according to the above method. The absorbance A0 of a mixture of 2.0 mL of methanol and 2.0 mL of DPPH solution was measured. Experiments of each group were repeated three times, and the DPPH free radical scavenging rate of EPSF-starch was calculated according to Equation 1.
# [formula] • where A0 represents the absorbance of the mixture of methanol and DPPH solution; A1 represents the absorbance of a mixture of the sample dispersion and DPPH free radical solution; and A2 represents the absorbance of a mixture of the sample dispersion and methanol.
substance,measurement,setting,value
epigallocatechin-3-gallate [EGCG],ABTS free radical scavenging rate,[1]; sample concentration 2 μg/mL in methanol,51.91 ± 2.1%
same,ABTS free radical scavenging rate,[1]; sample concentration 4 μg/mL in methanol,78.8 ± 1.73%
same,ABTS free radical scavenging rate,[1]; sample concentration 6 μg/mL in methanol,91.49 ± 1.23%
same,ABTS free radical scavenging rate,[1]; sample concentration 8 μg/mL in methanol,94.38 ± 2.07%
same,ABTS free radical scavenging rate,[1]; sample concentration 10 μg/mL in methanol,95.17 ± 1.8%
same,ABTS free radical scavenging rate,[1]; sample concentration 12 μg/mL in methanol,95.24 ± 1.69%
same,DPPH free radical scavenging rate,[2]; sample concentration 2 μg/ml in methanol,21.57 ± 0.04%
same,DPPH free radical scavenging rate,[2]; sample concentration 4 μg/ml in methanol,50.98 ± 0.25%
same,DPPH free radical scavenging rate,[2]; sample concentration 6 μg/ml in methanol,67.85 ± 4%
same,DPPH free radical scavenging rate,[2]; sample concentration 8 μg/ml in methanol,88.44 ± 0.27%
same,DPPH free radical scavenging rate,[2]; sample concentration 10 μg/ml in methanol,85.67 ± 2.01%
same,DPPH free radical scavenging rate,[2]; sample concentration 12 μg/ml in methanol,87.39 ± 2.62%
same,DPPH free radical scavenging rate,[2]; sample concentration 2.5 mg/ml in methanol,90%
